Data on 7 molecules can be found in US20170209574A1, “COMBINATION THERAPIES” (Novartis AG, priority 2014, published 2017).

The test system of test [1] is PD-L1 (CD274). As to the kind of experiment: TaqMan RT PCR of PD-L1 mRNA in H3122 cells in vitro. Type of test: cell-based, human. The settings on record: H3122 (NSCLC with ALK translocation) in vitro; FIG. 3. Here is the method: (§1) TaqMan RT PCR assays were developed to detect changes of expression levels of PD-L1 (CD274) in cell lines and xenograft tumors. mRNA was isolated from frozen cell pellets or tumor fragments using the Qiagen RNeasy Mini kit. Isolated RNA was frozen at −80° C. RNA quality was checked and RNA was quantified using a 2100 Agilent Bioanalyzer following the protocol for the Agilent RNA 6000 Nano Kit. cDNA was prepared using a High Capacity RNA- to cDNA Kit (Applied Biosystems).
(§2) Real-time PCR reactions were carried out in 20 μl total volume, including 10 μl of Universal PCR master mix (Applied Biosystems), 1 μl of human PD-L1 (CD274) probe/primer set (Applied Biosystems), and 8 μl of cDNA. Each sample was run in triplicate. The amount of cDNA produced from 25-50 ng of RNA in the reverse transcription reaction was used in each PCR reaction. Due to difference in mRNA levels between PD-L1 and GAPDH, the two real-time PCR reactions were done in separate tubes using same amount of cDNA. The real-time PCR reaction was run on the C1000 Thermal Cycle (BioRad) with the cycle program as follows: a 10 minute incubation at 95° C. followed by 40 cycles of 95° C. for 15 seconds and 60° C. for 1 minute. After the reaction was complete, the PD-L1 average Ct was normalized relative to each Ct value from the GAPDH reference reaction. Each normalized logarithmic value was then converted into a linear value.

In test [2] the test system is ALK-positive NSCLC patients. As to the kind of experiment: Clinical study of LDK378 in ALK-positive NSCLC patients. The settings on record: 750 mg; 53.3% of the patients censored. Type of test: in vivo, human.
For test [3], the system named is PD-L1 (CD274). Put plainly: TaqMan RT PCR of PD-L1 mRNA in HEYA8 tumor xenograft model. The settings on record: tumor xenograft model bearing HEYA8 (KRAS mutant ovarian cancer); FIG. 5. Type of test: in vivo, human. Here is the method: as §1, §2
The subject of test [4] is PD-L1 (CD274). Put plainly: TaqMan RT PCR of PD-L1 mRNA in UKE-1 tumor xenograft model. To be noted: tumor xenograft model bearing UKE-1 (MPN line with JAK2V617F mutation); FIG. 6. Type of test: in vivo, human. The method, then: as §1, §2
In test [5] the test system is PD-L1 (CD274). Put plainly: Flow cytometry of PD-L1 surface expression in EBC-1 cells treated with INC280. The settings on record: EBC-1 cells (NSCLC with cMET amplification), in vitro; INC280 10, 100, 1000 nM for 24, 48, 72 hours; FIG. 1. The format is cell-based, human. The method, then: PD-L1 (CD274) expression was analyzed in cancer cell lines treated with INC280. Cells were obtained from ATCC and cultured in vitro following ATCC directions. The cell lines used were previously characterized by the Cancer Cell Line Encyclopedia Project (www.broadinstitute.org/ccle/home).
Cells plated in six-well culture plates were treated with the INC280 at different concentrations (10 nM, 100 nM, and 1000 nM) for 24, 48 and 72 hours. Equal amount of vehicle (DMSO) was used as a control. Cells were washed with PBS and then harvested using a cell scraper.
For each reaction, 0.5-1×10^6 cells were stained with 200 μL of anti-human monoclonal PD-L1-PE antibody, clone M1H1 (BD) for 30-60 minutes at 4° C. Cells were washed twice and data was acquired using a Canto II with FACSDiva software (BD Bioscience). Data analysis was performed using FlowJo software (Tree Star). Mean fluorescence intensity (MFI) was determined by gating on single cells. Unstained cells were used as a gating control.

The subject of test [6] is PD-L1 (CD274). As to the kind of experiment: TaqMan RT PCR of PD-L1 mRNA in Hs.746.T tumor xenograft. The format is in vivo, human. To be noted: Hs.746.T tumor (gastric cancer cell with cMET amplification & mutation) xenograft; FIG. 2. Here is the method:
as §1, §2

In another test the test system is PBMCs. Put plainly: Cytokine analysis (Luminex) of anti-CD3 stimulated PBMCs. Type of test: cell-based, human. The settings on record: suboptimal anti-CD3 0.005 ug/ml, LCL161 1, 50, 100 or 1000 nM, day 5 supernatants. The method, then: Blood was obtained from normal healthy donors. Peripheral blood mononuclear cells (PBMCs) were isolated by centrifuging blood in CPT™ tubes for 18 minutes at 1800×g. Cells were washed twice with cold PBS, enumerated and then stimulated in 96-well round bottomed tissue culture plates (500,000 cells per well) for 5 days at 37° C., 5% CO2. Cells were either left untreated (DMSO control) or treated with different concentrations of LCL161 (1, 50, 100, or 1000 nM). For the cytokine analyses, cells were stimulated with a suboptimal anti-CD3 stimulus (0.005 ug/ml of soluble clone UCHT1). At day 5 post stimulation, supernatants were collected and analyzed for cytokines (Luminex).

Test [7] concerns human CD4+ and CD8+ T cells. As to the kind of experiment: CFSE proliferation analysis of anti-CD3 stimulated PBMCs (FACS). Type of test: cell-based. To be noted: 1 ug/ml soluble anti-CD3, increasing concentrations of LCL161, 5 days. The method, then: For the proliferation analyses, cells were labeled with 5 uM carboxyfluorescein diacetate succinimidyl ester (CFSE) before stimulation, and then treated with 1 ug/ml soluble anti-CD3. Covalently bound CFSE is divided equally between daughter cells, allowing discrimination of successive rounds of cell division and to track proliferating cells (Lyons et al., Curr Protoc Cytom. 2013; Chapter 9: Unit 9.11). PBMCs were stimulated in the presence of increasing concentrations of LCL161 (or DMSO control) for 5 days. At day 5 post stimulation, cells were harvested, stained with anti-CD4, -CD8, -PD-1, or -CD127, followed by FACS analysis. Results for one donor are shown. Similar results were obtained with PBMCs from 4 other donors.

The next test deals with TIM-3. Put plainly: CyTOF mass cytometry of PBMCs (immune checkpoint modulation). Type of test: cell-based, human. To be noted: PBMCs +/- 100 ng/mL anti-CD3, 100 nM LCL161, 4 days; monocytes, naive, memory and activated T killer cells, memory T helper cells; FIG. 9. Here is the method: PBMCs were isolated from healthy donors via BD CPT™ vacutainer tubes. 1 million cells/mL were plated in RPMI+10% FBS+/−100 ng/mL of anti-CD3 antibody+/−DMSO or 100 nM LCL161 for 4 days. Cells were harvested, washed, stained with a panel of metal-conjugated antibodies listed below in Table 2 for analysis by CyTOF mass cytometry. Data were visualized by SPADE using Cytobank webware. SPADE and its use are described, e.g., in Peng et al., Nature Biotechnology, 29, 886-891 (2011); Sean et al, Science, 332 (6030): 687-696 (2011).
A Panel of Metal-Conjugated Antibodies for Analysis by CyTOF Mass Cytometry

The test system of test [8] is EGFR mutant (L858R, ex19del and T790M) cancer models. The settings on record: cited from earlier work.
For test [9], the system named is PD-L1 (CD274). As to the kind of experiment: TaqMan RT PCR of PD-L1 mRNA in LOXIMV1 tumor xenograft model. To be noted: tumor xenograft model bearing LOXIMV1 (BRAF mutant melanoma); FIG. 4. The format is in vivo, human. The method, then: as §1, §2

Each structure is given as a SMILES string.

With `Cc1cc(Nc2ncc(Cl)c(Nc3ccccc3S(=O)(=O)C(C)C)n2)c(OC(C)C)cc1C1CCNCC1` [LDK378, 5-chloro-N2-(2-isopropoxy-5-methyl-4-(piperidin-4-yl)-phenyl)-N4-[2-(propane-2-sulfonyl)-phenyl]-pyrimidine-2,4-diamine], the “PD-L1 mRNA” value in the test on PD-L1 (CD274) [1] was “Inhibition of PD-L1 mRNA”. Besides, the “median progression-free survival (PFS)” value in [2] was found to be 8.21 months.
Turning to `Cn1cnc2c(F)c(Nc3ccc(Br)cc3F)c(C(=O)NOCCO)cc21` [MEK162, 5-((4-bromo-2-fluorophenyl)amino)-4-fluoro-N-(2-hydroxyethoxy)-1-methyl-1H-benzo[d]imidazole-6-carboxamide], the “PD-L1 mRNA” value in the test on PD-L1 (CD274) [3] is given as “Downregulation of PD-L1 mRNA”.
As to `N#CC[C@H](C1CCCC1)n1cc(-c2ncnc3[nH]ccc23)cn1` [INC424, (3R)-3-cyclopentyl-3-[4-(7H-pyrrolo-[2,3-d]pyrimidin-4-yl)-1H-pyrazol-1-yl]propanenitrile], the “PD-L1 mRNA” value with PD-L1 (CD274) [4] is “Downregulation of PD-L1 mRNA”.
For `CNC(=O)c1ccc(-c2cnc3ncc(Cc4ccc5ncccc5c4)n3n2)cc1F` [INC280, 2-fluoro-N-methyl-4-[7-(quinolin-6-ylmethyl)imidazo[1,2-b][1,2,4]triazin-2-yl]benzamide], the “surface expression of PD-L1 (flow cytometry)” value in the test with PD-L1 (CD274) [5] is given as “significant downregulation of surface expression of PD-L1”. Further, the “PD-L1 expression (mRNA)” value with PD-L1 (CD274) [6] is recorded as “Inhibition of PD-L1 expression (mRNA)”.
Take `CN[C@@H](C)C(=O)N[C@H](C(=O)N1CCC[C@H]1c1nc(C(=O)c2ccc(F)cc2)cs1)C1CCCCC1` [LCL161, (S)—N—((S)-1-cyclohexyl-2-((S)-2-(4-(4-fluorobenzoyl)thiazol-2-yl)pyrrolidin-1-yl)-2-oxoethyl)-2-(methylamino)propanamide]: in the test on PBMCs (FIG. 7A), the IFN-gamma production entry was “increases in immune-active cytokine, IFN-gamma”. Besides, the IL-10 production entry in the test with PBMCs (FIG. 7B) is given as “reduction in immune-suppressive cytokine IL-10”. In test [7] (FIG. 8A), the “proliferation of CD4+ T cells (CFSE dilution)” value is “enhanced proliferation”. Besides, the “proliferation of CD8+ T cells (CFSE dilution)” value in [7] (FIG. 8B) is on record as “enhanced proliferation”. The TIM-3 expression entry with TIM-3 is listed as “increase in TIM-3 expression”.
Turning to `Cc1cc(C(=O)Nc2nc3cccc(Cl)c3n2[C@@H]2CCCCN(C(=O)/C=C/CN(C)C)C2)ccn1` [EGF816, (R,E)-N-(7-chloro-1-(1-(4-(dimethylamino)but-2-enoyl)azepan-3-yl)-1H-benzo[d]imidazol-2-yl)-2-methylisonicotinamide], the “efficacy in EGFR mutant cancer models” value in test [8] (L858R, ex19del and T790M, in vitro and in vivo) is given as “significant efficacy”. For the same molecule, the “WT EGFR inhibition” value in test [8] (at clinically relevant efficacious concentrations) is “no indication of WT EGFR inhibition”.
`COC(=O)N[C@@H](C)CNc1nccc(-c2cn(C(C)C)nc2-c2cc(Cl)cc(NS(C)(=O)=O)c2F)n1` [LGX818, methyl (S)-(1-((4-(3-(5-chloro-2-fluoro-3-(methylsulfonamido)phenyl)-1-isopropyl-1H-pyrazol-4-yl)pyrimidin-2-yl)amino)propan-2-yl)carbamate]: the “PD-L1 mRNA” value in the test on PD-L1 (CD274) [9] is recorded as “Downregulation of PD-L1 mRNA”.
